Test results: patent US10300451B2, “Method for generating an affinity reagent library” (priority 2013, dated 2019)
“Also recorded” adds a separate entry of the source.

Key:
αVβ6 = target: T1, αVβ6 (Homo sapiens, UniProt P06756+P18564); assay: Inhibition of biotinylated-A20FMDV2 binding to αVβ6 expressing cells; type: cell-based; details: scFv or peptide 0.1 and 1.0 μM; biotinylated A20FMDV2 10 nM
T1 construct: A375puro endogenously express the RGD directed integrins α5β1, αVβ3, αVβ5 and αVβ8; expressed in transfected cells; host or cells: αVβ6-expressing cells; The method paragraph names no line

cellular αVβ6 = target: T2, cellular αVβ6 (Homo sapiens, UniProt P06756+P18564); assay: Screening for integrin specificity by flow cytometry (A375Pβ6 vs A375Ppuro cells); type: cell-based
T2 construct: A375puro endogenously express the RGD directed integrins α5β1, αVβ3, αVβ5 and αVβ8; expressed in transfected cells; host or cells: A375Pβ6 (αVβ6-positive), with A375Ppuro as the αVβ6-negative control
Method: Purified scFv were tested for specificity for αVβ6 by flow cytometry using the isogenic pairs of cell lines, […] and A375Ppuro, which express similar levels of four RGD-binding integrins (αVβ3, αVβ5, αVβ8, α5β1) but only […] express αVβ6. Briefly, cells were detached with trypsin/EDTA, rinsed twice in ice-cold wash buffer (0.1% BSA/DMEM/0.1% NaN3) and 2×10^5 cells re-suspended in 50 μl of wash buffer per sample. In between all incubation steps, all samples were washed twice with wash buffer unless otherwise stated. Cells were incubated on ice for 1 hr with 0.1 or 1 uM purified scFv of peptide, washed twice. For scFv, cells were then incubated for 1 hr on ice with mouse anti-Myc antibody (clone 9E10, Santa Cruz) at 1:100. After washing, bound antibody was detected with anti-mouse IgG-Alexaflour 488 (1:250 for 1 h; Molecular Probes), on ice. Bound VH-CDR3 derived peptide were detected by rabbit anti-biotin IgG (1:200), followed by anti-rabbit IgG-Alexafluor 488 (1:250; Molecular Probes). Cells were analysed using the FACSCalibur (Beckton Dickinson). Cell expression of αVβ6 integrin was detected with mouse monoclonal antibody (clone 10D5, 10 μg/ml; Millipore) and non-specific (control) binding with non-immune class matched IgG.

αVβ6-expressing cells = assay: Internalisation assay (confocal microscopy); type: cell-based, human; details: for intracellular localisation after incubation: 37° C. for 45 minutes, αVβ6-expressing cells; for cellular internalisation in αVβ6-expressing cells: 37° C., 0 and 45 minutes
Method: In 24-well culture plates, 2×10^4 cells (DX3puro, DX3β6 or VB6) were seeded onto 13 mm diameter glass coverslips and allowed to incubate overnight at 37° C. in growth medium. Cells were washed thwice in serum free medium (SFM) and then scFv (4 uM) or biotinylated-CDR3-peptide (100 nM) diluted in SFM added on ice for 10 mins. After two ice-cold washes and a further 10 mins on ice with mouse anti-biotin antibody (10 ug/ml) pre-warmed media containing 10% FCS was added to the cells and incubated at 37° C. At 10 min intervals between 0-60 mins, cells were fixed in 2% HCHO in PBS and permeabilised with 0.1% TritonX-100 (PBS) for 3 mins. scFv was detected with mouse anti c-myc (1:100 dilution, clone 9E10; 30 mins, ambient temperature) and followed by while peptides were detected by rabbit anti-biotin IgG (1:200). Both peptide and scFv detected with anti-mouse Alexa488 for 30′. Nuclei were counter-labelled with 4′,6-diamidino-2-phenylindole (DAPI), coverslips mounted with Mowiol and samples examined by confocal microscopy (Zeiss LSM510, Welwyn Garden City).

[1] = tested on: αVβ6-dependent adhesion of carcinoma cells to immobilised fibronectin; assay: Picogreen adhesion assay on fibronectin; type: cell-based, human; details: fibronectin 10 ug/ml
Method: All adhesion assays were performed in quadruplicate and repeated at least 2-3 times. In a 96-well plate format, test wells were coated with Fibronectin (10 ug/ml/PBS) and negative control wells were coated with 0.1% BSA (bovine serum albumin)/PBS. After incubation at 37° C. for 1 hour, plates were washed in PBS thwice and blocked with 0.1% BSA/PBS for 30 mins at 37° C. Following a PBS rinse, cells were seeded into the wells, the plate resting on ice to avoid dehydration and to ensure an initial uniform temperature for the experiment. Purified scFv or peptide was added (25 ul) to the wells at the desired concentrations, before adding 1.5×10^4 cells (25 ul) per well. In some experiments, cells (1.5×10^4) were pre-treated with β1 blocking antibody AIIB2 at 10 ug/ml before seeding into test wells. To determine percentage adhesion, standard curves were generated by plating 0-2.5×10^4 cells in separate wells. After incubating plates at 37° C. for 30′ plates were washed twice in 1 mM CaCl2/0.5 mM MgCl2/PBS and transferred into −80° C. for 15 mins. Adherent cells were quantified using a Picogreen kit (Invitrogen) and analysed on a fluorescence reader (FLUOstar Optima, BMG Labtech Ltd, Bucks, UK).

T1 sequence (P06756 31-889 limits assumed): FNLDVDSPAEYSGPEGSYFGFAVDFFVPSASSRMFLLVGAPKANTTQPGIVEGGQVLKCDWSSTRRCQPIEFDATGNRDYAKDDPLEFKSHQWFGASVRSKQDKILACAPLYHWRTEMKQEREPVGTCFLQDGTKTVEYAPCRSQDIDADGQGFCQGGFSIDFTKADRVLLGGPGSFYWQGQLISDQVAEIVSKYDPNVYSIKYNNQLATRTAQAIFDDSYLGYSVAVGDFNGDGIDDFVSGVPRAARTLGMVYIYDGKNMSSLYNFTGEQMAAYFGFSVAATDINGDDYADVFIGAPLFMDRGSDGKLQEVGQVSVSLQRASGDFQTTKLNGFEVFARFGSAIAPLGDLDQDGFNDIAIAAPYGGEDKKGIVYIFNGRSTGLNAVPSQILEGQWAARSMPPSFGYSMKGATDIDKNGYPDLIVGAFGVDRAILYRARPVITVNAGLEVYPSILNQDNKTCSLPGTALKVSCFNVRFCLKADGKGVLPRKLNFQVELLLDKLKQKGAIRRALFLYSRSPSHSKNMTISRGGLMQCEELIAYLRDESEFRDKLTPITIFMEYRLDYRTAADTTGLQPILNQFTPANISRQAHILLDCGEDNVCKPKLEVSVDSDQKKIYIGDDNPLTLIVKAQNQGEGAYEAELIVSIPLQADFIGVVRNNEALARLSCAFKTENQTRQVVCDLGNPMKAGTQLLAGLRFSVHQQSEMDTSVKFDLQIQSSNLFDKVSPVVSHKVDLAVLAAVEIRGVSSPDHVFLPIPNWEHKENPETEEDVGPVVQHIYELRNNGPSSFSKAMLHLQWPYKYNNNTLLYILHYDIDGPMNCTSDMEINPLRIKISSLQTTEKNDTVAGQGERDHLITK
T1 sequence (P06756 891-1048 limits assumed): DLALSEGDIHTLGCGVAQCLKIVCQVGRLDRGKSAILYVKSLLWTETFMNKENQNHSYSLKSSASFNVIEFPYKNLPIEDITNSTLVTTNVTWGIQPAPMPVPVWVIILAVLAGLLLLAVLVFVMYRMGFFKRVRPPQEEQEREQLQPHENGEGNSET
T1 sequence (P18564 22-788): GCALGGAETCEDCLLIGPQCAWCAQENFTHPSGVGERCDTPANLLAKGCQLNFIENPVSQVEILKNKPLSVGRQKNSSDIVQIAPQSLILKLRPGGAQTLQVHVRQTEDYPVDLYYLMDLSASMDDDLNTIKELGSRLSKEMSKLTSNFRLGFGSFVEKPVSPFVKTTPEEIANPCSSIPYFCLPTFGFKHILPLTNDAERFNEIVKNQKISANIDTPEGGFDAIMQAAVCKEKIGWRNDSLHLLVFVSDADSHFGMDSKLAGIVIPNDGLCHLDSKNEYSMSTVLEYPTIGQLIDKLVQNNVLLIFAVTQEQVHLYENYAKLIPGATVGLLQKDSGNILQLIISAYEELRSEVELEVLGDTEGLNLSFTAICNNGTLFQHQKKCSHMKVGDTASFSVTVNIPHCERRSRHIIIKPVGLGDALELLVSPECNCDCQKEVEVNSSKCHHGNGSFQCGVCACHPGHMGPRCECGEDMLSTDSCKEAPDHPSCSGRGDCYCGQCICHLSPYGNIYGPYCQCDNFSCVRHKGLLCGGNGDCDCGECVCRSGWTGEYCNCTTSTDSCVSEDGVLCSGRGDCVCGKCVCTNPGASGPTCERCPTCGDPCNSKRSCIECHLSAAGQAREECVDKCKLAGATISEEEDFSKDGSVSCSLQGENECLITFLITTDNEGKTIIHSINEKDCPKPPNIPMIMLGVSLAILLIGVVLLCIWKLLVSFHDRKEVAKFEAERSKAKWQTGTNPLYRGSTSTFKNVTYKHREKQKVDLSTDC
T2 sequence (P06756 31-889 limits assumed): as the sequence (P06756 31-889 limits assumed) above
T2 sequence (P06756 891-1048 limits assumed): as the sequence (P06756 891-1048 limits assumed) above
T2 sequence (P18564 22-788): as the sequence (P18564 22-788) above

Sequence	inhibition of binding of A20FMDV2 peptide to cellular αvβ6 (αVβ6)	binding to αVβ6-expressing cells (flow cytometry) (cellular αVβ6)	intracellular localisation after incubation (αVβ6-expressing cells)	cellular internalisation in αVβ6-expressing cells (αVβ6-expressing cells)	cellular internalisation in αVβ6-negative cells (αVβ6-expressing cells)	inhibition of αVβ6-dependent adhesion of carcinoma cells to immobilised fibronectin [1]
EPRGDLRTLAAREKRNFNETLARLQEKGI (Peptide sequence comprising RGD motif followed by a C-terminal alpha-helix or 3(10)-helix) [D25p]	dose-dependent inhibition	αVβ6-specific binding	nuclear localisation was not seen	Internalisation	No peptide internalization was observed	inhibited; also recorded: significant concentration-dependent inhibition
QPRGDLRELAARSEAQLQEKGI (Peptide sequence comprising RGD motif followed by a C-terminal alpha-helix or 3(10)-helix) [D34p]	dose-dependent inhibition	αVβ6-specific binding	nuclear localisation was not seen	Internalisation	No peptide internalization was observed	inhibited; also recorded: significant concentration-dependent inhibition
